The text below walks through data of patent US20230227405A1, “5-OXOPYRROLIDINE-3-CARBOXAMIDES AS NAV1.8 INHIBITORS” (MERCK SHARP & DOHME CORP., priority 2020, published 2023).

This assay addresses T1, human Nav1.8 (Homo sapiens, UniProt Q9Y5Y9).
T1 construct: expressed in transfected cells
The experiment in a line: Qube® automated patch-clamp assay, Nav1.8. The class given is cell-based. The settings on record: human Nav1.8 stably expressed in HEK 293 cells; whole-cell voltage clamp, room temperature; read-out: IC50 values (nM) for Examples in the Nav1.8 Qube® Assay. The protocol:
Compounds were tested on human Nav1.8 and Nav1.5 channels stably expressed in human embryo kidney (HEK) 293 cells. Sodium current measurements on Qube® were conducted as follows: automated 384-well patch-clamp assays on the Qube® platform (Sophion Biosciences) were used to measure the inhibition of sodium flow through human Nav1.8 and Nav1.5 channels. Whole-cell voltage-clamp recordings were performed in QChips® (Sophion Biosciences) at room temperature. Nav1.8 current measurements on Qube® were obtained as follows: Nav1.8 currents were elicited with a 10 second 1 Hertz (Hz) pulse train from a holding potential of −90 millivolts (mV), delivered to the cells once per minute in the control condition (DMSO only) and after compound addition. The 1 hertz pulse train stimulation consisted of ten test pulses to 10 millivolt (mV) for 20 milliseconds (ms), each of which was followed by a 980 millisecond repolarization to −67 millivolts. At the end of the 10 second pulse train stimulation, a 5 second hyperpolarization step to −100 millivolt (mV) was used to recover Nav1.8 from fast inactivation. The peak currents elicited by the 1st and 10th test pulses were used to determine IC50 values for resting inhibition and inactivated state inhibition. Nav1.5 current measurements on Qube® were obtained as follows: Nav1.5 currents were elicited with a 20 second 3 Hertz pulse train in the control condition (DMSO only) and after compound addition. The pulse train consisted of sixty 20 millisecond test pulses to 0 millivolt from a holding potential of −80 millivolt (mV). The average peak currents elicited by the last 3 test pulses were used to determine IC50 values for Nav1.5 inhibition.
The following buffers were used for the Qube® recordings: External buffer for Nav1.8 Qube® recording: 150 NaCl, 2 CaCl2, 5 KCl, 1 Mg Cl2, 10 HEPES, 12 Dextrose; External buffer for Qube® Nav1.5 recording: 120 N-Methyl-D-Glucamine, 40 NaCl, 1 KCl, 2.7 CaCl2, 5 HEPES, 0.5 MgCl2; and Internal buffer for Qube® recording: 120 CsF, 30 CsCl, 10 EGTA, 5 HEPES, 5 NaF, 2 MgCl2.
For all Qube® experiments offline analysis was used to determine percent inhibition as a function of drug concentration. IC50 values were determined by fitting to the Hill equation.
A general note: Patch clamp records ionic current or voltage across a cell membrane.

T1 sequence (Q9Y5Y9 whole entry): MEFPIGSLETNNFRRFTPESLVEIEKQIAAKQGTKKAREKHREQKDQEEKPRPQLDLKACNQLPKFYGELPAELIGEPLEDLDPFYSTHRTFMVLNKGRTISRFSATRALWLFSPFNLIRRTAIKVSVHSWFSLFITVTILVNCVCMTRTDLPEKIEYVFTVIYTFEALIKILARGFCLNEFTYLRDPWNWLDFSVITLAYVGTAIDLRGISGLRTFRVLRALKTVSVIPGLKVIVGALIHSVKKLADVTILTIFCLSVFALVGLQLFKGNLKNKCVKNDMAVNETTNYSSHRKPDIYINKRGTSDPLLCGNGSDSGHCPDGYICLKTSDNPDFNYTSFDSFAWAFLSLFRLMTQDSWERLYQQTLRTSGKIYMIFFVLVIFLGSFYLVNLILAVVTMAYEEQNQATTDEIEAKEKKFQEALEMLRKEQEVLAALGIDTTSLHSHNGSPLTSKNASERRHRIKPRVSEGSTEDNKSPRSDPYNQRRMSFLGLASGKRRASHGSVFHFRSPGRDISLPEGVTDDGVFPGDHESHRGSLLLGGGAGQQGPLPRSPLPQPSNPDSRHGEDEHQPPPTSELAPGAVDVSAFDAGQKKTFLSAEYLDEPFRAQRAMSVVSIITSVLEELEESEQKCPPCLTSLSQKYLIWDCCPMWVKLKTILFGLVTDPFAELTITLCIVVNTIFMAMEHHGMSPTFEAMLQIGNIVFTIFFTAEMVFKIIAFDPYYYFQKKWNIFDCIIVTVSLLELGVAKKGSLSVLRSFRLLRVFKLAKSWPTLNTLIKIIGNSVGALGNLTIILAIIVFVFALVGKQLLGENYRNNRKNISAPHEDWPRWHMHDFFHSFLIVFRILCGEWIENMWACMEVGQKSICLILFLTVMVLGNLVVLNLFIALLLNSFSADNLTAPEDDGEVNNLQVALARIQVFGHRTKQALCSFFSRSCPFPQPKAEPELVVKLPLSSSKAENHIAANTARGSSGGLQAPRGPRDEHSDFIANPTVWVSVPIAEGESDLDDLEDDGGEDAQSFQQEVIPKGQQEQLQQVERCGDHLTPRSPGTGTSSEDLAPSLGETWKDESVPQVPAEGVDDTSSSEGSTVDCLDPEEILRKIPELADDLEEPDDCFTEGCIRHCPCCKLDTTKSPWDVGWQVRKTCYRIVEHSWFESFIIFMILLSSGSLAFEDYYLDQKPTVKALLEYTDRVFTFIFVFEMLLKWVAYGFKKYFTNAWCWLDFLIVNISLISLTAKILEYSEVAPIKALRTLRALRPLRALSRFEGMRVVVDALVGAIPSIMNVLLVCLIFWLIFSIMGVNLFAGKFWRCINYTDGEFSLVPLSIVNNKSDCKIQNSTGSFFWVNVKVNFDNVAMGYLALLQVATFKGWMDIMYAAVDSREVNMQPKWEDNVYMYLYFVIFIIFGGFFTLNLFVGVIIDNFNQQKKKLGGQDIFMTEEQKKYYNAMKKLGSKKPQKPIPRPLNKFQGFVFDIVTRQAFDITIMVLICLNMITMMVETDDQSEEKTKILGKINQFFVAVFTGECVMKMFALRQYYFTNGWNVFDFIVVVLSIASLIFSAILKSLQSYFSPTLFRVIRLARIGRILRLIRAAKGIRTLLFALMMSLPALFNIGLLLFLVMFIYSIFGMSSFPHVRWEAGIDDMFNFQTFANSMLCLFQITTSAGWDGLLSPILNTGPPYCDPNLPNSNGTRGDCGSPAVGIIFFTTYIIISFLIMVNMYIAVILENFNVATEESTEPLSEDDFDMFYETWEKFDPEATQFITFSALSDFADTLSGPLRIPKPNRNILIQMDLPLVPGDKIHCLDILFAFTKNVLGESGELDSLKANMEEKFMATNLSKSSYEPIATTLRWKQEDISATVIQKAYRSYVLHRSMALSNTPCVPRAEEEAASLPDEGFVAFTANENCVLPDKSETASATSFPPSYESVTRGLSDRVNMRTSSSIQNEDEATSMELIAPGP

For `COc1cc(Cl)ccc1C(NC(=O)[C@@H]1CNC(=O)C1)c1ccc(Cl)cc1` (stereo partly drawn) [Example 5, (3S)-N-((4-chloro-2-methoxyphenyl)(4-chlorophenyl)methyl)-5-oxopyrrolidine-3-carboxamide], the IC50 (in general, the concentration needed to halve the response being measured) is 11 nM. The figure for `O=C1C[C@H](C(=O)NC(c2cccc(Cl)c2)c2cccc(OC(F)F)c2)CN1` (stereo partly drawn) [Example 6, (3S)-N-((3-chlorophenyl)(3-(difluoromethoxy)phenyl)methyl)-5-oxopyrrolidine-3-carboxamide] is 520 nM; for `O=C1C[C@H](C(=O)NC(c2ccc(Cl)cc2)c2cc(F)cc(C(F)(F)F)c2)CN1` (stereo partly drawn) [Example 7, (3S)-N-((4-chlorophenyl)(3-fluoro-5-(trifluoromethyl)phenyl)methyl)-5-oxopyrrolidine-3-carboxamide] it is 186 nM; for `O=C1C[C@H](C(=O)NC(c2ccc(C(F)(F)F)cc2)c2cccc(C(F)(F)F)c2)CN1` (stereo partly drawn) [Example 8, (3S)-5-oxo-N-((3-(trifluoromethyl)phenyl)(4-(trifluoromethyl)phenyl)methyl)pyrrolidine-3-carboxamide] it is 19 nM. To `O=C1C[C@H](C(=O)NC(c2ccc(C(F)(F)F)cc2)c2ccc(C(F)(F)F)cc2)CN1` [Example 9, (S)-N-(bis(4-(trifluoromethyl)phenyl)methyl)-5-oxopyrrolidine-3-carboxamide] belongs 28 nM. To `O=C1C[C@H](C(=O)NC(c2ccc(Cl)cc2)c2cccc(OC(F)(F)F)c2)CN1` (stereo partly drawn) [Example 10, (3S)-N-((4-chlorophenyl)(3-(trifluoromethoxy)phenyl)methyl)-5-oxopyrrolidine-3-carboxamide] belongs 52 nM; to `O=C1C[C@H](C(=O)NC(c2ccc(F)c(Cl)c2)c2ccc(F)c(Cl)c2)CN1` [Example 18, (S)-N-(bis(3-chloro-4-fluorophenyl)methyl)-5-oxopyrrolidine-3-carboxamide], 5.3 nM; to `N#Cc1cc(C(NC(=O)[C@@H]2CNC(=O)C2)c2ccc(F)c(Cl)c2)ccc1F` (stereo partly drawn) [Example 22, (3S)—N-((3-chloro-4-fluorophenyl)(3-cyano-4-fluorophenyl)methyl)-5-oxopyrrolidine-3-carboxamide], 32 nM. Consider `O=C1C[C@H](C(=O)NC(c2ccc(F)c(C(F)(F)F)c2)c2csc(C(F)(F)F)n2)CN1` (stereo partly drawn) [Example 23, (3S)-N-((4-fluoro-3-(trifluoromethyl)phenyl)(2-(trifluoromethyl)thiazol-4-yl)methyl)-5-oxopyrrolidine-3-carboxamide], for which the IC50 amounted to 92 nM. To `O=C1C[C@H](C(=O)NC(c2ccc(F)c(C(F)(F)F)c2)c2ccc(F)c(Cl)c2F)CN1` (stereo partly drawn) [Example 24, (3S)-N-((3-chloro-2,4-difluorophenyl)(4-fluoro-3-(trifluoromethyl)phenyl)methyl)-5-oxopyrrolidine-3-carboxamide] belongs 5.5 nM; to `O=C1C[C@H](C(=O)NC(COc2ccccc2)c2ccc(F)c(C(F)(F)F)c2)CN1` (stereo partly drawn) [Example 25, (3S)-N-(1-(4-fluoro-3-(trifluoromethyl)phenyl)-2-phenoxyethyl)-5-oxopyrrolidine-3-carboxamide], 53 nM; to `O=C1C[C@H](C(=O)NC(CCc2ccccc2)c2cccc(Cl)c2)CN1` (stereo partly drawn) [Example 26, (3S)-N-(1-(3-chlorophenyl)-3-phenylpropyl)-5-oxopyrrolidine-3-carboxamideNa], 435 nM.
